According to patent US11414387B2, “Oxoacridinyl acetic acid derivatives and methods of use” (Stingthera, Inc., priority 2017, dated 2022):

Legend:
mSTING-R232 = mSTING-R232 (Mus musculus, UniProt Q3TBT3); test: STING differential scanning fluorimetry (DSF) assay, mouse STING; conditions: net shift in melting temperature
hSTING-R232 = hSTING-R232 (Homo sapiens (Human), UniProt Q86WV6, H232R); test: STING differential scanning fluorimetry (DSF) assay, WT human STING; conditions: WT (R232) human STING aa140-379, net shift in melting temperature
STING protein = STING protein (Homo sapiens (Human), UniProt Q86WV6, H232R); test: Cell based reporter assay of IRF activation (IRF-luciferase), THP1-dual-KI R232; conditions: read-out: THP1-dual-KI R232_IRF(Luciferase)_Activity Maximum measured (%)
hSTING-WT = hSTING-WT (Homo sapiens (Human), UniProt Q86WV6, H232R); test: Radiometric filtration binding competition assay, hSTING-WT
mSTING = mSTING (Mus musculus, UniProt Q3TBT3); test: Radiometric filtration binding competition assay, mSTING
Procedure: A radiometric filtration binding competition assay was performed to quantify the binding affinity of compounds of the present application for the human or mouse STING protein, or associated HAQ human isoform. […] The resulting dose response was fit by non-linear regression to determine an IC50 value, from which a Ki value for each compound was extrapolated.
The resulting complexes were then filtered, dried, and scintillation fluid was added and the remaining radio signal was measured to determine the degree of compound ligand inhibition. This assay format was optimized for both the WT and HAQ isoforms of the human protein and the mouse orthologue protein.
Probe Concentration: Minimum concentration that achieved max assay window • g. Assay Format: Scintillation Proximity Bead or Filtration Binding Plate • h. […] Assay incubation times for successive incubation steps
WT-hSWAT: WT_FBA_HIS-SUMO-hSWAT IC50 (μM) (“WT”=Wild-type); HAQ-hSWAT: HAQ_FBA_HIS-SUMO-hSWAT IC50 (μM) (“HAQ”=human HAQ allele of STING protein); and WT-mSWAT: MOUSE_FBA_HIS-SUMO-mnSWAT IC50 (μM) which is the mouse isoform of STING protein.

Chain of STING protein (Q86WV6 whole entry H232R): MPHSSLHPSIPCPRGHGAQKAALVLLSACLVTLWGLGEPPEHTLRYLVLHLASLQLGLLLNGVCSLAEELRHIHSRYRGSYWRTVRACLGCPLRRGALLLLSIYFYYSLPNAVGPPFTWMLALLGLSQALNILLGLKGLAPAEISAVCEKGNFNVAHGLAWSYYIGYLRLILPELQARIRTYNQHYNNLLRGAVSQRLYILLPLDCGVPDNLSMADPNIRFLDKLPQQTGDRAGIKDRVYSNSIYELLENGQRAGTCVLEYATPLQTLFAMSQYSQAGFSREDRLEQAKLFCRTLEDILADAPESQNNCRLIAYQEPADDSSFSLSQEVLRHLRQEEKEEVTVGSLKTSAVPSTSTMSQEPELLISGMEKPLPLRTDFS
Chain of hSTING-WT (Q86WV6 140-379 H232R): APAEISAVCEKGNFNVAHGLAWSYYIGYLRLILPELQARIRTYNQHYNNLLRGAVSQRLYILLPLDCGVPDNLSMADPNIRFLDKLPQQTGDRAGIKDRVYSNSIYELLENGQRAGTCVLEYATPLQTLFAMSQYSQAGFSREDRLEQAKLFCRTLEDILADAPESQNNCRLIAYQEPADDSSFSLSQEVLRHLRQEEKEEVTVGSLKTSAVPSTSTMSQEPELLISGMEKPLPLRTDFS
Chain of hSTING-R232 (Q86WV6 140-379 H232R): as above

Row | SMILES | MOUSE DSF_6xHIS-SUMO Tm Shift (° C.) (mSTING-R232) | WT_DSF_hSWAT Tm Shift (° C.) (hSTING-R232) | Emax (STING protein) [%] | IC50 (hSTING-WT) [µM] | IC50 (mSTING) [µM]
1 | O=C(O)Cn1c2ccccc2c(=O)c2ccc(Br)c(Br)c21 [Compound 108] | C (“C” = 5-15° C.) | C (“C” = 2-7° C,) | 5 to 25 | > 300 | 100 to 300
2 | O=C(O)Cn1c2cc(N3CCc4ccccc43)ccc2c(=O)c2ccc(Cl)c(Cl)c21 [Compound 144] | C (“C” = 5-15° C.) | C (“C” = 2-7° C,) | < 5 | 100 to 300 | –
3 | CC(C)c1ccc2c(=O)c3ccc(C#N)c(Cl)c3n(CC(=O)O)c2c1 [Compound 145] | A (“A” < 0° C.) | A (“A” < 0° C.) | < 5 | 100 to 300 | –
4 | O=C(O)Cn1c2cc(NCCN3CCc4ccccc43)ccc2c(=O)c2ccc(Cl)c(Cl)c21 [Compound 150] | C (“C” = 5-15° C.) | C (“C” = 2-7° C,) | 5 to 25 | 100 to 300 | –
5 | Cc1ccc(-c2ccc3c(=O)c4ccc(Cl)c(Cl)c4n(CC(=O)O)c3c2)cc1 [Compound 154] | D (“D” > 15° C.) | C (“C” = 2-7° C,) | 5 to 25 | 100 to 300 | –
6 | O=C(O)Cn1c2cc(-c3cccc(Cl)c3)ccc2c(=O)c2ccc(Cl)c(Cl)c21 [Compound 155] | D (“D” > 15° C.) | C (“C” = 2-7° C,) | < 5 | 100 to 300 | –
7 | O=C(O)Cn1c2cc(-c3ccc(Cl)cc3)ccc2c(=O)c2ccc(Cl)c(Cl)c21 [Compound 156] | C (“C” = 5-15° C.) | B (“B” = 0-2° C.) | < 5 | 100 to 300 | < 20
8 | O=C(O)Cn1c2cc(-c3cccc(Cl)n3)ccc2c(=O)c2ccc(Cl)c(Cl)c21 [Compound 162] | C (“C” = 5-15° C.) | A (“A” < 0° C.) | < 5 | 100 to 300 | –
9 | CC(C)c1ccc2c(=O)c3ccc(Br)c(Cl)c3n(CC(=O)O)c2c1 [Compound 170] | C (“C” = 5-15° C.) | B (“B” = 0-2° C.) | 25 to 50 | 20 to 100 | –
10 | Cc1ccc2c(=O)c3ccc(Cl)cc3n(C(C)C(=O)O)c2c1 (stereo not drawn) [Compound 171] | B (“B” = 0-5° C.) | A (“A” < 0° C.) | < 5 | > 300 | –
11 | CC(C)c1ccc2c(=O)c3ccc(Cl)c(Cl)c3n(C)c2c1 [Compound 174] | B (“B” = 0-5° C.) | B (“B” = 0-2° C.) | < 5 | > 300 | –
12 | O=C(O)Cn1c2cc(NC3CCC3)ccc2c(=O)c2ccc(Cl)c(Br)c21 [Compound 175] | D (“D” > 15° C.) | D (“D” > 7° C.) | > 50 | 20 to 100 | –
13 | COc1c(Cl)ccc2c(=O)c3ccccc3n(CC(=O)O)c12 [Compound 178] | C (“C” = 5-15° C.) | C (“C” = 2-7° C,) | – | > 300 | > 300
14 | O=C(O)Cn1c2cc(-c3ccncc3)ccc2c(=O)c2ccc(Cl)c(Cl)c21 [Compound 189] | C (“C” = 5-15° C.) | C (“C” = 2-7° C,) | 5 to 25 | 100 to 300 | –
15 | O=C(O)Cn1c2cc(Nc3ccccc3)ccc2c(=O)c2ccc(Cl)c(Br)c21 [Compound 206] | D (“D” > 15° C.) | D (“D” > 7° C.) | – | 20 to 100 | < 20
16 | CCSc1ccc2c(=O)c3ccc(Cl)c(OC)c3n(CC(=O)O)c2c1 [Compound 231] | D (“D” > 15° C.) | D (“D” > 7° C.) | > 50 | 20 to 100 | < 20
17 | COc1c(Cl)ccc2c(=O)c3ccc(SC(C)C)cc3n(CC(=O)O)c12 [Compound 232] | D (“D” > 15° C.) | D (“D” > 7° C.) | > 50 | 100 to 300 | < 20
18 | COc1c(Cl)ccc2c(=O)c3ccc(SC)cc3n(CC(=O)O)c12 [Compound 234] | D (“D” > 15° C.) | D (“D” > 7° C.) | > 50 | 20 to 100 | < 20
19 | CCOc1c(Cl)ccc2c(=O)c3ccccc3n(CC(=O)O)c12 [Compound 244] | C (“C” = 5-15° C.) | D (“D” > 7° C.) | > 50 | 100 to 300 | 20 to 100
20 | COc1c(Cl)ccc2c(=O)c3ccc(Nc4ccc(Cl)cc4)cc3n(CC(=O)O)c12 [Compound 251] | D (“D” > 15° C.) | D (“D” > 7° C.) | 25 to 50 | 20 to 100 | < 20
21 | CS(=O)(=O)Nc1cccc(Nc2ccc3c(=O)c4ccc(Cl)c(Cl)c4n(CC(=O)O)c3c2)c1 [Compound 257] | D (“D” > 15° C.) | D (“D” > 7° C.) | < 5 | 20 to 100 | < 20

Next, values leading:

Row | MOUSE DSF_6xHIS-SUMO Tm Shift (° C.) (mSTING-R232) | WT_DSF_hSWAT Tm Shift (° C.) (hSTING-R232) | Emax (STING protein) [%] | IC50 (hSTING-WT) [µM] | IC50 (mSTING) [µM] | SMILES
22 | C (“C” = 5-15° C.) | C (“C” = 2-7° C,) | 25 to 50 | 20 to 100 | – | CC(C)(C)CNc1ccc2c(=O)c3ccc(Cl)c(Br)c3n(CC(=O)O)c2c1 [Compound 148]
23 | C (“C” = 5-15° C.) | C (“C” = 2-7° C,) | 5 to 25 | 20 to 100 | 20 to 100 | O=C(O)Cn1c2cc(-c3cccc(F)c3)ccc2c(=O)c2ccc(Cl)c(Cl)c21 [Compound 152]
24 | D (“D” > 15° C.) | C (“C” = 2-7° C,) | 5 to 25 | 20 to 100 | – | O=C(O)Cn1c2cc(-c3ccc(F)cc3)ccc2c(=O)c2ccc(Cl)c(Cl)c21 [Compound 153]
25 | D (“D” > 15° C.) | C (“C” = 2-7° C,) | < 5 | 20 to 100 | – | CC1(C)CCC=C(c2ccc3c(=O)c4ccc(Cl)c(Cl)c4n(CC(=O)O)c3c2)C1 [Compound 157]
26 | D (“D” > 15° C.) | C (“C” = 2-7° C,) | < 5 | < 20 | – | CC1(C)CCCC(c2ccc3c(=O)c4ccc(Cl)c(Cl)c4n(CC(=O)O)c3c2)C1 (stereo not drawn) [Compound 158]
27 | D (“D” > 15° C.) | C (“C” = 2-7° C,) | 5 to 25 | 20 to 100 | – | Cc1ccc(-c2ccc3c(=O)c4ccc(Cl)c(Cl)c4n(CC(=O)O)c3c2)cc1F [Compound 163]
28 | D (“D” > 15° C.) | D (“D” > 7° C.) | > 50 | < 20 | 20 to 100 | CC(C)Oc1c(Cl)ccc2c(=O)c3ccc(C(C)(C)C)cc3n(CC(=O)O)c12 [Compound 225]
29 | D (“D” > 15° C.) | D (“D” > 7° C.) | < 5 | < 20 | < 20 | COc1c(Cl)ccc2c(=O)c3ccc(Nc4cccc(O)c4)cc3n(CC(=O)O)c12 [Compound 235]
30 | D (“D” > 15° C.) | D (“D” > 7° C.) | > 50 | < 20 | < 20 | COc1c(Cl)ccc2c(=O)c3ccc(Nc4ccc(F)cc4)cc3n(CC(=O)O)c12 [Compound 250]
